Columns and labels:
Assay type in all cases: in vivo
ADMA = assay: Circulating ADMA in plasma by immunoassay after COX-2 inhibition in mice; conditions: wild-type mice; parecoxib 100 mg/kg in drinking water for 5 days; FIG. 1
Procedure: Experiments were performed on male and female mPGES-1^−/− and their wild-type mPGES-1^+/+ littermate mice at 6-8 weeks of age. […] All mice were housed with a 12 h light/dark cycle in a climate-controlled environment, and were fed with standard rodent chow with water ad libitum. All mice experiments were conducted in line with EU directive 2010/63/EU and according to guidelines from the Swedish Veterinary board the Guide for the Care and Use of Laboratory Animals published by the US National Institutes of Health (NIH Publication No. 85-23, revised 1996). Studies were sanctioned by the Karolinska Institute ethics committee (dnr. N86_13 and N364_11), the Shantou University Institutional Animal Research and Use Committee and/or the Imperial College London Ethical Review Panel (PPL 70/7013 and 70/8422). Where indicated, wild-type (mPGES-1^+/+) mice were treated with the selective COX-2 inhibitor, parecoxib (100 mg/kg; Pfizer, USA) added to their drinking water for 5 days prior to tissue collection as we have done before (see Ahmetaj-Shala, B. et al., Circulation, 131, 633-642 (2015)).
Plasma was separated by centrifugation for the following circulating mediators measured by immunoassay: ADMA (DLD Diagnostika, Germany), PGE2 (Cisbio Bioassays, France).

Prmt1 = assay: Gene expression in renal medulla (TaqMan), gene for synthesis of ADMA; conditions: wild-type mice, parecoxib 100 mg/kg in drinking water for 5 days, FIG. 2
Procedure: (§1) Experiments were performed on male and female mPGES-1^−/− and their wild-type mPGES-1^+/+ littermate mice at 6-8 weeks of age. […] All mice were housed with a 12 h light/dark cycle in a climate-controlled environment, and were fed with standard rodent chow with water ad libitum. All mice experiments were conducted in line with EU directive 2010/63/EU and according to guidelines from the Swedish Veterinary board the Guide for the Care and Use of Laboratory Animals published by the US National Institutes of Health (NIH Publication No. 85-23, revised 1996). […]
(§2) RNA was isolated from renal medulla homogenates using a magnetic silica-bead isolation kit (Life Technologies, UK) and converted to cDNA using reverse transcriptase (Thermo Fisher Scientific, UK) with oligo(dT) primers (Life Technologies, UK). Gene expression levels were determined using TaqMan hydrolysis probes (Life Technologies, UK) recognising Prmt1 (probe ID: Mm00480133_m1 or Agxt2 (probe ID: Mm01304088_m1). Data were normalised to expression of the housekeeping genes 18S (probe ID: Mm03928990_g1) and Gapdh (probe ID: Mm99999915_g1) and relative expression compared using the comparative Ct method.

Agxt2 = assay: Gene expression in renal medulla (TaqMan), gene for degradation of ADMA; conditions: wild-type mice, parecoxib 100 mg/kg in drinking water for 5 days, FIG. 3
Procedure: as §1, §2

SMILES: CCC(=O)NS(=O)(=O)c1ccc(-c2c(-c3ccccc3)noc2C)cc1 [parecoxib]
- plasma levels of ADMA (ADMA): increased levels of ADMA
- expression of genes responsible for synthesis of ADMA (Prmt1) (Prmt1): increased expression of genes responsible for synthesis of ADMA (Prmt1)
- expression of genes responsible for degradation of ADMA (Agxt2) (Agxt2): increased expression of genes responsible for degradation of ADMA (Agxt2)

From patent publication US20220218670A1, “METHODS OF TREATING DISEASES CHARACTERISED BY VASOCONSTRICTION” (Gesynta Pharma AB, priority 2016, published 2022)
